# Experimental data as given in patent US10669261B2, “Heteroarylhydroxypyrimidinones as agonists of the APJ receptor” (BRISTOL-MYERS SQUIBB COMPANY, priority 2015, dated 2020).
# Target: T1, human APJ receptor (Homo sapiens, UniProt P35414)
# T1 construct: expressed in transfected cells
# T1 sequence (P35414 1-380): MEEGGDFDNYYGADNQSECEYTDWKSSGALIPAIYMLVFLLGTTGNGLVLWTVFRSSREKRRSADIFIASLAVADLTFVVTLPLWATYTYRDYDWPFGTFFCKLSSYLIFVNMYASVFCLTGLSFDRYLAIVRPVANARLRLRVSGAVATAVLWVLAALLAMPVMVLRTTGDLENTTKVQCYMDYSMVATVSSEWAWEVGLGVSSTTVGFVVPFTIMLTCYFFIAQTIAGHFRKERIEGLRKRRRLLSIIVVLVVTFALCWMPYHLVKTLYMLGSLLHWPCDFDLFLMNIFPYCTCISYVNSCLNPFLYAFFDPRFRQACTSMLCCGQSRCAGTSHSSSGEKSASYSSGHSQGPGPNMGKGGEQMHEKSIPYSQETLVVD
# Experiment: Intracellular cAMP accumulation assay (APJ hcAMP, HTRF)
# Format: cell-based
# Details: Table 2; HEK293 cells stably expressing human APJ receptor; read-out: hAPJ cAMP EC50 Potency range
# Summary of the method: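 HEK293 cells stably expressing the receptor (5,000/well) treated with compound plus […] and 2 μM forskolin for 30 min at room temperature; cAMP by HTRF against a cAMP standard curve. EC50 from variable-slope sigmoidal fit; Ymax as % of (Pyr1)apelin-13 inhibition.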
row,SMILES,EC50
1,"CCCCc1nc(O)c(-c2nnc(Cc3ccc(Cl)cn3)o2)c(=O)n1[C@@H](C)c1cccc(C#N)c1 [Example 108, 3-[(1S)-1-(2-butyl-5-{5-[(5-chloropyridin-2-yl)methyl]-1,3,4-oxadiazol-2-yl}-4-hydroxy-6-oxo-1,6-dihydropyrimidin-1-yl)ethyl]benzonitrile]",0.01 to 10 nM
2,"CCCCc1nc(O)c(-c2nnc(Cc3ccc(Cl)cn3)o2)c(=O)n1C(C)c1ccncc1 (stereo not shown) [Example 109, 2-butyl-5-{5-[(5-chloropyridin-2-yl)methyl]-1,3,4-oxadiazol-2-yl}-6-hydroxy-3-[1-(pyridin-4-yl)ethyl]-3,4-dihydropyrimidin-4-one]",0.01 to 10 nM
3,"CCCCc1nc(O)c(-c2nnc(Cc3noc4ccccc34)o2)c(=O)n1C(C)c1ccncc1 (stereo not shown) [Example 110, 5-{5-[(1,2-benzoxazol-3-yl)methyl]-1,3,4-oxadiazol-2-yl}-2-butyl-6-hydroxy-3-[1-(pyridin-4-yl)ethyl]-3,4-dihydropyrimidin-4-one]",10 to 100 nM
4,"CCCCc1nc(O)c(-c2nnc(Cc3ccc(Cl)cn3)o2)c(=O)n1C(C)c1ccncc1 (stereo not shown) [Example 111, 2-butyl-5-{5-[(5-chloropyridin-2-yl)methyl]-1,3,4-oxadiazol-2-yl}-6-hydroxy-3-[1-(pyridin-4-yl)ethyl]-3,4-dihydropyrimidin-4-one]",0.01 to 10 nM
5,"CCCCc1nc(O)c(-c2nnc(Cc3csc(C)n3)o2)c(=O)n1C(c1ccccc1)C(C)C (stereo not shown) [Example 112, 2-butyl-6-hydroxy-5-{5-[(2-methyl-1,3-thiazol-4-yl)methyl]-1,3,4-oxadiazol-2-yl}-3-(2-methyl-1-phenylpropyl)-3,4-dihydropyrimidin-4-one]",10 to 100 nM
6,"CCCCc1nc(O)c(-c2nnc(Cc3ccc(Cl)cn3)o2)c(=O)n1C(c1ccccc1)C(C)C (stereo not shown) [Example 113, 2-butyl-5-{5-[(5-chloropyridin-2-yl)methyl]-1,3,4-oxadiazol-2-yl}-6-hydroxy-3-(2-methyl-1-phenylpropyl)-3,4-dihydropyrimidin-4-one]",0.01 to 10 nM
7,"CCCCc1nc(O)c(-c2nnc(Cc3noc4ccccc34)o2)c(=O)n1[C@@H](C)c1cccc(OC)c1 [Example 114, 5-{5-[(1,2-benzoxazol-3-yl)methyl]-1,3,4-oxadiazol-2-yl}-2-butyl-6-hydroxy-3-[(1S)-1-(3-methoxyphenyl)ethyl]-3,4-dihydropyrimidin-4-one]",10 to 100 nM
8,"CCCCc1nc(O)c(-c2nnc(Cc3noc4ccccc34)o2)c(=O)n1C(c1ccccc1)C(C)C (stereo not shown) [Example 115, 5-{5-[(1,2-benzoxazol-3-yl)methyl]-1,3,4-oxadiazol-2-yl}-2-butyl-6-hydroxy-3-(2-methyl-1-phenylpropyl)-3,4-dihydropyrimidin-4-one]",10 to 100 nM
9,"CCCCc1nc(O)c(-c2nnc(Cc3ccc(Cl)cn3)o2)c(=O)n1[C@@H](C)c1cccc(OC)c1 [Example 116, 2-butyl-5-{5-[(5-chloropyridin-2-yl)methyl]-1,3,4-oxadiazol-2-yl}-6-hydroxy-3-[(1S)-1-(3-methoxyphenyl)ethyl]-3,4-dihydropyrimidin-4-one]",0.01 to 10 nM
10,"CCCCc1nc(O)c(-c2nnc(Cc3noc4ccccc34)o2)c(=O)n1[C@@H]1CCc2ccccc21 [Example 117, 5-{5-[(1,2-benzoxazol-3-yl)methyl]-1,3,4-oxadiazol-2-yl}-2-butyl-3-[(1R)-2,3-dihydro-1H-inden-1-yl]-6-hydroxy-3,4-dihydropyrimidin-4-one]",100 to 300 nM
11,"CCCCc1nc(O)c(-c2nnc(Cc3ccc(Cl)cn3)o2)c(=O)n1[C@@H](CC)c1ccccc1 [Example 118, 2-butyl-5-{5-[(5-chloropyridin-2-yl)methyl]-1,3,4-oxadiazol-2-yl}-6-hydroxy-3-[(1S)-1-phenylpropyl]-3,4-dihydropyrimidin-4-one]",0.01 to 10 nM
12,"CCCCc1nc(O)c(-c2nnc(Cc3ccc(Cl)cn3)o2)c(=O)n1[C@@H](C)c1ccccc1 [Example 119, 2-butyl-5-{5-[(5-chloropyridin-2-yl)methyl]-1,3,4-oxadiazol-2-yl}-6-hydroxy-3-[(1S)-1-phenylethyl]-3,4-dihydropyrimidin-4-one]",0.01 to 10 nM
13,"CCCCc1nc(O)c(-c2nnc(Cc3ccc(Cl)cn3)o2)c(=O)n1[C@H](C)c1ccccc1 [Example 120, 2-butyl-5-{5-[(5-chloropyridin-2-yl)methyl]-1,3,4-oxadiazol-2-yl}-6-hydroxy-3-[(1R)-1-phenylethyl]-3,4-dihydropyrimidin-4-one]",0.01 to 10 nM
14,"CCCCc1nc(O)c(-c2nnc(Cc3noc4ccccc34)o2)c(=O)n1C(C)c1cccnc1 (stereo not shown) [Example 121, 5-{5-[(1,2-benzoxazol-3-yl)methyl]-1,3,4-oxadiazol-2-yl}-2-butyl-6-hydroxy-3-[1-(pyridin-3-yl)ethyl]-3,4-dihydropyrimidin-4-one]",100 to 300 nM
15,CCCCc1nc(O)c(-c2nnc(Cc3ccc(Cl)cn3)o2)c(=O)n1[C@@H]1CCc2ccccc21 [Example 122],10 to 100 nM
16,"CCCCc1nc(O)c(-c2nnc(Cc3ccc(Cl)cn3)o2)c(=O)n1C(C)c1cccnc1 (stereo not shown) [Example 123, 2-butyl-5-{5-[(5-chloropyridin-2-yl)methyl]-1,3,4-oxadiazol-2-yl}-6-hydroxy-3-[1-(pyridin-3-yl)ethyl]-3,4-dihydropyrimidin-4-one]",10 to 100 nM
